What is called EC50 is the concentration that produces a half-maximal response.

For the experiment, the target named is T1, GPR40 of human origin (Homo sapiens, UniProt O14842).
T1 construct: expressed in transfected cells
T1 sequence (O14842 whole entry): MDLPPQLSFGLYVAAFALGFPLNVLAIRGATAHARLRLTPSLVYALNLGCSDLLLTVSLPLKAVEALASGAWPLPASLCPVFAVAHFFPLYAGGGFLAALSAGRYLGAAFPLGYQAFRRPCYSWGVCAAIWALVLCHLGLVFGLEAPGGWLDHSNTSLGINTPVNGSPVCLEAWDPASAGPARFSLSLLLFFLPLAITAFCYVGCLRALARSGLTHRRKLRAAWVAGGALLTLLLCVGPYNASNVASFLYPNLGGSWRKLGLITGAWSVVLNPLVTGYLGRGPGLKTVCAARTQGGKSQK
Kind of experiment: Agonist action on GPR40 of human origin (intracellular Ca2+ change). The format is cell-based. To be noted: CHO cell strain stably expressing GPR40 of human origin; change in Ca2+ concentration, fluorescent calcium indicator. As to the method: Pharmacological Test Example 1: Agonist Action on GPR40 of Human Origin
A CHO cell strain stably expressing GPR40 of human origin was used to determine the agonist action of a subject compound. This cell strain was seeded in a clear bottom 96 well plate at 4×10^4 cells/100 pt/well. The cell strain iswas cultured in a CO2 incubator overnight using a Ham's F-12 medium containing a 10% fetal bovine serum, 100 U/mL penicillin, 0.1 mg/mL streptomycin, and 400 μg/mL Geneticin. Calcium 4 Assay Kit (Molecular Devices) was used as a fluorescent calcium indicator. One mL of 77 mg/mL probenecid (Invitrogen) was added to 100 mL of a calcium indicator solution to prepare a solution (loading solution) mixed with a 20 mM HEPES-containing Hanks' balanced salt solution (HBSS) in equal proportions. To the cells from which the culture solution is removed, 200 μl of the loading solution was added, and the cells were cultured in a CO2 incubator for 1 hour. The subject compound was diluted with a 20 mM HEPES-containing HBSS and was added to the cells by 50 μL, and the change in the Ca^2+ concentration was measured with an intracellular ion analyzer. The EC50 value of the subject compound was calculated using the dose-response curve of fluorescence intensity variation.
Turning to `Cc1nc(OCCCS(C)(=O)=O)ccc1Oc1cccc2c1CC[C@H]2Oc1ccc(-c2cc(O)n[s+]2[O-])cc1` (stereo partly drawn) [Example 117, 3-hydroxy-5-(4-(((R)-4-((2-methyl-6-(3-(methylsulfonyl)propoxy)pyridin-3-yl)oxy)-2,3-dihydro-1H-inden-1-yl)oxy)phenyl)isothiazole 1-oxide], the EC50 is less than 300 nM. Consider `CCOc1ccc(-c2cccc3c2CC[C@H]3Oc2ccc(-c3cc(O)n[s+]3[O-])cc2)cc1Cl` (stereo partly drawn) [Example 60, 5-(4-(((R)-4-(3-chloro-4-ethoxyphenyl)-2,3-dihydro-1H-inden-1-yl)oxy)phenyl)-3-hydroxyisothiazole 1-oxide], for which the half-maximal effective concentration (EC50) was less than 300 nM. Then `CCOc1cc(Cl)ccc1-c1cccc2c1CC[C@H]2Oc1ccc(-c2cc(O)n[s+]2[O-])cc1` (stereo partly drawn) [Example 18, 5-(4-(((R)-4-(4-chloro-2-ethoxyphenyl)-2,3-dihydro-1H-inden-1-yl)oxy)phenyl)-3-hydroxyisothiazole 1-oxide], with 300 to 3000 nM; and `Cc1cc(OCCCS(C)(=O)=O)cc(C)c1-c1cccc2c1OCC2Oc1ccc(-c2cc(O)n[s+]2[O-])cc1` (single isomer, unassigned) [Example 151, 5-(4-((7-(2,6-dimethyl-4-(3-(methylsulfonyl)propoxy)phenyl)-2,3-dihydrobenzofuran-3-yl)oxy)phenyl)-3-hydroxyisothiazole 1-oxide], with less than 300 nM; and `[O-][s+]1nc(O)cc1-c1ccc(O[C@@H]2CCc3c(Br)cccc32)cc1` (single isomer, unassigned) [Example 3], with less than 300 nM.

On to `CC(C)c1ccc(-c2cccc3c2CC[C@H]3Oc2ccc(-c3cc(O)n[s+]3[O-])cc2)c(Cl)n1` (stereo partly drawn) [Example 76, 5-(4-(((R)-4-(6-isopropyl-2-chloropyridin-3-yl)-2,3-dihydro-1H-inden-1-yl)oxy)phenyl)-3-hydroxyisothiazole 1-oxide], for which the 50% effective concentration (EC50) was less than 300 nM. The result for `[O-][s+]1nc(O)cc1-c1ccc(OCc2ccc(Oc3ccccc3)cc2)cc1` (single isomer, unassigned) [Example 160, 3-hydroxy-5-(4-((4-phenoxybenzyl)oxy)phenyl)isothiazole 1-oxide] reads less than 300 nM; that for `[O-][s+]1nc(O)cc1-c1ccc(O[C@@H]2CCc3c(Oc4cccc(CCO)c4)cccc32)cc1` (stereo partly drawn) [Example 89, 3-hydroxy-5-(4-(((R)-4-(3-(2-hydroxyethyl)phenoxy)-2,3-dihydro-1H-inden-1-yl)oxy)phenyl)isothiazole 1-oxide], less than 300 nM; that for `COc1cccc(-c2cccc3c2CC[C@H]3Oc2ccc(-c3cc(O)n[s+]3[O-])cc2)c1` (stereo partly drawn) [Example 30, 5-(4-(((R)-4-(3-methoxyphenyl)-2,3-dihydro-1H-inden-1-yl)oxy)phenyl)-3-hydroxyisothiazole 1-oxide], less than 300 nM. For `CCOc1ccc(Cl)cc1-c1cccc2c1CC[C@H]2Oc1ccc(-c2cc(O)n[s+]2[O-])cc1` (stereo partly drawn) [Example 58, 5-(4-(((R)-4-(5-chloro-2-ethoxyphenyl)-2,3-dihydro-1H-inden-1-yl)oxy)phenyl)-3-hydroxyisothiazole 1-oxide], the EC50 was less than 300 nM. As for `COc1ncc(Oc2cccc3c2CC[C@H]3Oc2ccc(-c3cc(O)n[s+]3[O-])cc2)cn1` (stereo partly drawn) [Example 110, 3-hydroxy-5-(4-(((R)-4-((2-methoxypyrimidin-5-yl)oxy)-2,3-dihydro-1H-inden-1-yl)oxy)phenyl)isothiazole 1-oxide], the EC50 was less than 300 nM. `[O-][s+]1nc(O)cc1-c1ccc(OCCc2ccccc2Oc2ccccc2)cc1` (stereo not drawn) [Example 161, 3-hydroxy-5-(4-(2-phenoxyphenethoxy)phenyl)isothiazole 1-oxide]: the EC50 was less than 300 nM. Consider `COc1ccc(F)c(-c2cccc3c2CC[C@H]3Oc2ccc(-c3cc(O)n[s+]3[O-])cc2)c1` (stereo partly drawn) [Example 53, 5-(4-(((R)-4-(2-fluoro-5-methoxyphenyl)-2,3-dihydro-1H-inden-1-yl)oxy)phenyl)-3-hydroxyisothiazole 1-oxide], for which the concentration giving a half-maximal response (EC50) is less than 300 nM. The result for `Cc1nc(OCCC(C)(C)O)ccc1Oc1cccc2c1OCC2Oc1ccc(-c2cc(O)n[s+]2[O-])cc1` (stereo not drawn) [Example 141, 3-hydroxy-5-(4-((7-((6-(3-hydroxy-3-methylbutoxy)-2-methylpyridin-3-yl)oxy)-2,3-dihydrobenzofuran-3-yl)oxy)phenyl)isothiazole 1-oxide] reads less than 300 nM; that for `CCOc1ccc(-c2cccc3c2CC[C@H]3Oc2ccc(-c3cc(O)n[s+]3[O-])cc2)cc1F` (stereo partly drawn) [Example 44, 5-(4-(((R)-4-(4-ethoxy-3-fluorophenyl)-2,3-dihydro-1H-inden-1-yl)oxy)phenyl)-3-hydroxyisothiazole 1-oxide], 300 to 3000 nM. Consider `Cc1cc(OCCC(C)(C)O)cc(C)c1-c1cccc2c1OCC2Oc1ccc(-c2cc(O)n[s+]2[O-])cc1` (single isomer, unassigned) [Example 148-a, 3-hydroxy-5-(4-((7-(4-(3-hydroxy-3-methylbutoxy)-2,6-dimethylphenyl)-2,3-dihydrobenzofuran-3-yl)oxy)phenyl)isothiazole 1-oxide], for which the 50% effective concentration (EC50) is less than 300 nM. With `[O-][s+]1nc(O)cc1-c1ccc(O[C@@H]2CCc3c(Oc4ccc(OC(F)(F)F)cc4)cccc32)cc1` (stereo partly drawn) [Example 103, 3-hydroxy-5-(4-(((R)-4-(4-(trifluoromethoxy)phenoxy)-2,3-dihydro-1H-inden-1-yl)oxy)phenyl)isothiazole 1-oxide], the concentration for a half-maximal effect (EC50) is less than 300 nM.

As to `Cc1ccc(C)c(-c2cccc3c2CC[C@H]3Oc2ccc(-c3cc(O)n[s+]3[O-])cc2)c1` (stereo partly drawn) [Example 37, 5-(4-(((R)-4-(2,5-dimethylphenyl)-2,3-dihydro-1H-inden-1-yl)oxy)phenyl)-3-hydroxyisothiazole 1-oxide], the EC50 is less than 300 nM. Regarding `[O-][s+]1nc(O)cc1-c1ccc(OCc2ccc(Oc3ccccc3)cc2)cc1` (stereo not drawn) [Example 159, 3-hydroxy-5-(4-((4-phenoxybenzyl)oxy)phenyl)isothiazole 1-oxide], the EC50 is less than 300 nM. The result for `Cc1ccccc1-c1cccc2c1CC[C@H]2Oc1ccc(-c2cc(O)n[s+]2[O-])cc1` (stereo partly drawn) [Example 27, 5-(4-(((R)-4-(2-methylphenyl)-2,3-dihydro-1H-inden-1-yl)oxy)phenyl)-3-hydroxyisothiazole 1-oxide] reads less than 300 nM; that for `COc1ccc(C)cc1-c1cccc2c1CC[C@H]2Oc1ccc(-c2cc(O)n[s+]2[O-])cc1` (stereo partly drawn) [Example 45, 5-(4-(((R)-4-(2-methoxy-5-methylphenyl)-2,3-dihydro-1H-inden-1-yl)oxy)phenyl)-3-hydroxyisothiazole 1-oxide], less than 300 nM. Then `[O-][s+]1nc(O)cc1-c1ccc(O[C@@H]2CCc3c(-c4cccc(C(F)(F)F)c4)cccc32)cc1` (stereo partly drawn) [Example 63, 5-(4-(((R)-4-(3-trifluoromethylphenyl)-2,3-dihydro-1H-inden-1-yl)oxy)phenyl)-3-hydroxyisothiazole 1-oxide], with 300 to 3000 nM; and `[O-][s+]1nc(O)cc1-c1ccc(O[C@@H]2CCc3c(-c4ccc(F)cc4OCc4ccccc4)cccc32)cc1` (stereo partly drawn) [Example 61, 5-(4-(((R)-4-(2-benzyloxy-4-fluorophenyl)-2,3-dihydro-1H-inden-1-yl)oxy)phenyl)-3-hydroxyisothiazole 1-oxide], with 300 to 3000 nM; and `[O-][s+]1nc(O)cc1-c1ccc(O[C@@H]2CCc3c(Oc4cnc5ccccc5c4)cccc32)cc1` (stereo partly drawn) [Example 104, 3-hydroxy-5-(4-(((R)-4-(quinolin-3-yloxy)-2,3-dihydro-1H-inden-1-yl)oxy)phenyl)isothiazole 1-oxide], with less than 300 nM. The result for `CN(C)C(=O)c1ccc(Oc2cccc3c2CC[C@H]3Oc2ccc(-c3cc(O)n[s+]3[O-])cc2)cc1` (stereo partly drawn) [Example 137, 4-(((R)-1-(4-(3-hydroxy-1-oxidoisothiazol-5-yl)phenoxy)-2,3-dihydro-1H-inden-4-yl)oxy)-N,N-dimethylbenzamide] reads less than 300 nM; that for `[O-][s+]1nc(O)cc1-c1ccc(OC2COc3c(Br)cccc32)cc1` (single isomer, unassigned) [Example 150, 5-(4-((7-bromo-2,3-dihydrobenzofuran-3-yl)oxy)phenyl)-3-hydroxyisothiazole 1-oxide], less than 300 nM. Consider `[O-][s+]1nc(O)cc1-c1ccc(O[C@@H]2CCc3c(-c4cccc(F)c4)cccc32)cc1` (stereo partly drawn) [Example 29, 5-(4-(((R)-4-(3-fluorophenyl)-2,3-dihydro-1H-inden-1-yl)oxy)phenyl)-3-hydroxyisothiazole 1-oxide], for which the EC50 was less than 300 nM. Consider `COc1ccc(Oc2cccc3c2CC[C@H]3Oc2ccc(-c3cc(O)n[s+]3[O-])cc2)cc1` (stereo partly drawn) [Example 92, 3-hydroxy-5-(4-(((R)-4-(4-methoxyphenoxy)-2,3-dihydro-1H-inden-1-yl)oxy)phenyl)isothiazole 1-oxide], for which the EC50 was less than 300 nM.

Consider `[O-][s+]1nc(O)cc1-c1ccc(O[C@@H]2CCc3c(-c4ccc(F)cc4)cccc32)cc1` (stereo partly drawn) [Example 21, 5-(4-(((R)-4-(4-fluorophenyl)-2,3-dihydro-1H-inden-1-yl)oxy)phenyl)-3-hydroxyisothiazole 1-oxide], for which the half-maximal effective concentration (EC50) is less than 300 nM. `Cc1nc(OCCC(C)(C)O)ccc1-c1cccc2c1OCC2Oc1ccc(-c2cc(O)n[s+]2[O-])cc1` (single isomer, unassigned) [Example 154-a, 3-hydroxy-5-(4-((7-(6-(3-hydroxy-3-methylbutoxy)-2-methylpyridin-3-yl)-2,3-dihydrobenzofuran-3-yl)oxy)phenyl)isothiazole 1-oxide]: the half-maximal effective concentration (EC50) is less than 300 nM.

Source of the values: patent US8629102B2, “3-hydroxyisothiazole 1-oxide derivatives” (Mochida Pharmaceutical Co., Ltd., priority 2011, dated 2014).
